Data reported in article PMC8003796, “Identification of Anti-Severe Acute Respiratory Syndrome-Related Coronavirus 2 (SARS-CoV-2) Oxysterol Derivatives In Vitro” (International Journal of Molecular Sciences, 2021).
“And” between values parts separate entries of the source, which are not always exact repeats. Equal entries are not always repeated. Where two headings read alike, the source gives them in different places.

Key:
SARS-CoV-2 [1] = assay: SARS-CoV-2 infection assay, viral RNA in culture supernatant by real-time RT-PCR; type: cell-based, SARS-CoV-2 Wk-521 strain; conditions: for IC90: Severe acute respiratory syndrome coronavirus 2, read-out: IC90 (90% maximal inhibitory concentration); for IC90 / IC50: viral RNA in culture supernatant, VeroE6/TMPRSS2 cells; for IC50: Severe acute respiratory syndrome coronavirus 2, read-out: IC50 (50% maximal inhibitory concentration); for reduction of the production of viral RNA as compared to control: natural oxysterols; for reduction of the production of viral RNA as compared to control / effect on viral RNA (in words): concentrations up to 30 μM; for effect on viral RNA level (in words): semi-synthetic oxysterols, up to 15 μM
SARS-CoV-2 [2] = assay: Virus-induced cytopathic effect (CPE) viewed under a microscope; type: cell-based, SARS-CoV-2 Wk-521 strain; conditions: 48 h post-inoculation; 10 μM RDV, 30 μM cholesterol, 30 μM 7-KC, 10 μM Oxy133, 10 μM Oxy210
SARS-CoV-2 [3] = assay: Viral N protein by indirect immunofluorescence; type: cell-based, SARS-CoV-2 Wk-521 strain; conditions: 10 μM RDV, 30 μM cholesterol, 30 μM 7-KC, 10 μM Oxy133, 10 μM Oxy210
SARS-CoV-2 [4] = assay: Time of addition assay (whole life cycle, entry, post-entry); type: cell-based, SARS-CoV-2 Wk-521 strain; conditions: 10 μM Oxy210, 10 μM Oxy133; for viral RNA, compound present post-entry (in words): 15 μM RDV, added 2 h post-inoculation for 21 h
[5] = Cell viability by MTT assay; conditions: African green monkey, VeroE6 cells stably overexpressing TMPRSS2
in vitro = conditions: African green monkey
hepatitis C virus (HCV) = assay: HCV replication assay, luciferase in LucNeo#2 replicon cells; type: cell-based, HCV NN strain (genotype-1b); conditions: 10 μM Oxy210, 1 μM sofosbuvir, 48 h
Procedure: N, nucleus; M, mitochondria; *, double-membrane vesicle.
HCV replication activity was measured using LucNeo#2 cells, carrying a subgenomic replicon RNA for an HCV NN strain (genotype-1b) and the luciferase gene driven by the HCV replication. LucNeo#2 cells were treated with the compounds indicated in Figure 3C for 48 h, and the luciferase activity was measured with Luciferase Assay System kit (Promega, Madison, WI, USA).

[6] = Pharmacokinetics in mice, single oral gavage dose; type: in vivo, balb/c mice; conditions: single oral dose 200 mg/kg; for Cmax: 200 mg/kg, read-out: Cmax (peak plasma concentration)
TGFβ signaling = conditions: fibroblastic cells and tumor cells ref 16; cited from earlier work
Hh signaling = conditions: fibroblastic cells and tumor cells ref 16; cited from earlier work
VeroE6/TMPRSS2 cells = assay: Cell viability by MTT assay; conditions: up to 15 μM
SARS-CoV-2 [7] = assay: Electron microscopy of double-membrane vesicle formation in infected cells; conditions: 10 μM, VeroE6/TMPRSS2 cells, MOI 1, 7 h

SMILES	IC90 (SARS-CoV-2 [1]; 24 h post-inoculation)	IC50 (SARS-CoV-2 [1]; 24 h post-inoculation)	effect on SARS-CoV-2-induced CPE (in words) (SARS-CoV-2 [2])	effect on virus propagation / spread of infection, N protein (in words) (SARS-CoV-2 [3])	CC50 (in vitro)	also measured
CCC(CC)COC(=O)[C@H](C)N[P@](=O)(OC[C@H]1O[C@@](C#N)(c2ccc3c(N)ncnn23)[C@H](O)[C@@H]1O)Oc1ccccc1 [RDV, remdesivir, reference compound]	2.5 µM	1.5 µM	blocked the virus-induced CPE	blocked		viral RNA, compound present post-entry (in words) (SARS-CoV-2 [4]): remarkable inhibition; CC50 at 24 h [5]: > 10 µM
CC(C)[C@@H](O)CC[C@@H](C)[C@H]1CC[C@H]2[C@@H]3CC=C4C[C@@H](O)CC[C@]4(C)[C@H]3CC[C@]12C [24(S)-OHC, 24(S)-hydroxycholesterol]	> 30 µM	1.3 µM			> 30 µM	reduction of the production of viral RNA as compared to control (SARS-CoV-2 [1]; 24 h post-inoculation): 80%–86%
CC(C)CC[C@H](O)[C@@H](C)[C@H]1CC[C@H]2[C@@H]3CC=C4C[C@@H](O)CC[C@]4(C)[C@H]3CC[C@]12C [22(S)-OHC, 22(S)-hydroxycholesterol]	> 30 µM	> 30 µM			> 30 µM	effect on viral RNA (in words) (SARS-CoV-2 [1]; 24 h post-inoculation): did not show apparent reductions in viral RNA
C[C@]12CC[C@H]3[C@@H](CC=C4C[C@@H](O)CC[C@@]43C)[C@@H]1CC[C@@H]2[C@](C)(O)CCc1cccnc1 [Oxy210]	8.6 µM	5.5 µM	blocked	blocked	> 15 µM	reduction of viral replication (SARS-CoV-2 [1]; 10 μM): more than 90%; reduction of viral RNA production (SARS-CoV-2 [1]; 15 μM, 24 h post-inoculation): 99.4% and > 99%; effect on viral RNA level (in words) (SARS-CoV-2 [1]; 24 h post-inoculation): reduced viral RNA level in a dose-dependent manner; viral RNA, compound present in the whole life cycle (in words) (SARS-CoV-2 [4]; 24 h): clearly reduced viral RNA levels; viral RNA, compound present post-entry (in words) (SARS-CoV-2 [4]): clearly reduced viral RNA levels; HCV replication, luciferase activity (in words) (hepatitis C virus (HCV)): reduced the DMV-dependent RNA replication of HCV; Cmax ([6]; balb/c, mouse, in vivo, po, plasma): 8160 ng/mL and 19.4 µM; MRT ([6]; balb/c, mouse, in vivo, plasma): 3.5 h; Tmax ([6]; balb/c, mouse, in vivo, plasma): 1 h; AUC(0-inf) ([6]; balb/c, mouse, in vivo, plasma, read-out: AUC (AUCinf)): 29300 ng·h/mL; tolerability (in words) [6]: well tolerated; Cmax ([6]; plasma): ~19 µM; inhibition of TGFβ signaling (in words) (TGFβ signaling): inhibited; inhibition of Hh signaling (in words) (Hh signaling): inhibited; cytotoxicity / cell viability (in words) (VeroE6/TMPRSS2 cells): No significant cytotoxicity; DMV formation in SARS-CoV-2-infected cells (in words) (SARS-CoV-2 [7]): remarkably reduced the DMV formation
CCCCCC[C@@](C)(O)[C@H]1CC[C@H]2[C@@H]3C[C@H](O)[C@H]4C[C@@H](O)CC[C@]4(C)[C@H]3CC[C@@]21C [Oxy133]	> 15 µM	> 15 µM			> 15 µM	effect on viral RNA level (in words) (SARS-CoV-2 [1]; 24 h post-inoculation): did not show antiviral activity up to 15 μM
CC(C)CC[C@@H](O)[C@@H](C)[C@H]1CC[C@H]2[C@@H]3CC=C4C[C@@H](O)CC[C@]4(C)[C@H]3CC[C@]12C [22(R)-OHC, 22(R)-hydroxycholesterol]	> 30 µM	13.2 µM			> 30 µM	reduction of the production of viral RNA as compared to control (SARS-CoV-2 [1]; 24 h post-inoculation): 80%–86%
CC(C)CCC[C@@H](C)[C@H]1CC[C@H]2[C@@H]3CC=C4C[C@@H](O)CC[C@]4(C)[C@H]3CC[C@]12C [Cholesterol, reference compound]	> 30 µM	> 30 µM	but not cholesterol, reduced the SARS-CoV-2-induced CPE	but not cholesterol, reduced	> 30 µM	effect on viral RNA (in words) (SARS-CoV-2 [1]; 24 h post-inoculation): did not show apparent reductions in viral RNA
